# How the values were obtained:
# [1] = tested on: anti-Porphyomonas gingivalis fimbria antibodies contained in sera of patients with periodontal disease; assay: Assay of the specific antibody in serum using plates coated with peptide-modified BSA (ELISA); assay type: binding, human; conditions: average absorbance (405 nm) of 3 specimens, serum diluted 100 times
# Method: One mg of each peptide synthesized in Example 2 was dissolved in 1 ml of 0.1 M phosphate buffered saline (PBS, pH 6.0), 5 mg of sulfated SMCC (made by Pierce Co.) was added, and the mixture was incubated at 30° C. for 30 minutes to conduct maleimidization, and then subjected to Sephadex G-10 column chromatography, and the first eluate fraction was collected. 7 mg of bovine serum albumin (BSA: made by Wako Pure Chemical Industries, Ltd.) was dissolved in 1 ml of 0.1 M phosphate buffer (pH 6.0), 10 mM EDTA, the solution was mixed with the above maleimidized peptide, and the mixture was subjected to reaction at 30° C. for 1 hour. The resultant peptide-modified BSA was subjected to Sephadex G-50 column chromatography, and the first eluate fraction was collected as a plate-preparing antigen solution.
# Then, six kind of peptides were synthesized after the process of Example 2, and a plate-preparing antigen solution was similarly prepared as a control.
# Each of the resultant antigen solutions was diluted with 0.1 M carbonate buffer (pH 9.6), 150 mM NaCl to give 100 ml of a solution. 10 μl/well of the solution was put in a polystyrene-made microtiter plate (Immunoplate II; maxisorp type; made by Nunc Co.) and left alone at 4° C. overnight, and washing was conducted three times each with 200 μl/well of PBS, using a microtiter automatic washer (hereafter abbreviated as washer; made by Bio-Rad Laboratories). 250 μl/well of PBS containing 0.1% gelatin (made by Nitta Gelatin Co., Ltd.) was added and the mixture was allowed to stand at 4° C. overnight to block the plate. The blocking solution was removed by absorption, and the plate was dried by a vacuum dryer, put in an aluminum bag, and after sealing the bag, kept at 4° C. for the following assay.
# Sera of patients of periodontal disease (n=3) and normal subjects (n=3) were used as samples, and each serum was diluted 100 times with PBS containing 10% bovine serum. 100 μl portions of these dilutions were added to the plates coated with various antigens, respectively, and incubation was conducted at 37° C. for 1 hour. Each plate was washed three times with 200 μl of PBST using the washer, 100 μl of a commercially available […] (diluted 10^3 times)/0.1% Casein/PBST was added as a secondary antibody, and incubation was conducted again at 37° C. for 1 hour. The plate was washed in the same manner as above, 100 μl of an o-phenylenediamine solution was added, incubation was conducted at 37° C. for 30 minutes, 100 μl of 0.1 N sulfuric acid was added to stop the reaction, and then, absorbance (405 nm) was measured by a microplate reader (made by Bio-Rad Laboratories) using the reaction well of no addition of the specimen as a control. The measures values are average absorbances of 3 specimens each of the patient group of periodontal disease and the normal subject group.
# Porphyomonas gingivalis = assay type: in vivo, guinea pig; conditions: for inhibitory effect against infection with Porphyomonas gingivalis: guinea pig, in words; for Degree of redness Longest length × shortest length / Inhibition rate: with FCA; for Degree of redness Longest length × shortest length: 500 μg/animal, inoculation on the 28th day, 24 hours later; for Inhibition rate: relative to the FIA inoculation group
# Method: Each peptide synthesized in Example 2 was administered together with FIA (Freund's incomplete adjuvant) or FCA (Freund's complete adjuvant), as a water-in-oil type emulsifier, into the sole of the right hind leg of a guinea pig in an amount of 500 μg/animal/time. Thereafter, on the 28th day, 200 μl of a suspension of 10^11 cells/ml of the bacterium was intracutaneously inoculated into the right flank of the same guinea pig after the hair at the region was shaved. 24 hours later, the longest length and shortest length of the resultant red coloring were measured, and the product of them was calculated. From the product was calculated the inhibition rate.
# [2] = tested on: fimbrial protein of Porphyomonas gingivalis; assay: Immunization of mice with the peptides: antibody titer in serum or saliva by ELISA; assay type: in vivo; conditions: A405 value by the ELISA method, with FCA, 4 weeks later
# Method: (§1) Each peptide synthesized in Example 2 was dissolved in PBS so as to make the concentration 200 μg/ml, the solution was mixed with the same volume of FCA, and the mixture after emulsification was subcutaneously injected into mice at the back (3 animals per group). 4 weeks later, the antibody titer in the serum or saliva against the peptide was assayed by an ELISA method.
# The fimbrial protein of Porphyomonas gingivalis was adsorbed on each well of a 96-well microtiter plate for ELISA, and a dilution of the serum with PBS (1/10^5), a dilution of the saliva with PBS (1/500), or a solution obtained by adding each peptide or the fimbrial protein of Porphyomonas gingivalis is to the dilution of the serum or saliva to cause absorption was put in the well. Reaction was conducted at 37° C. for 1 hour, and then assay was conducted by a usual ELISA method.
# [3] = Immunization of mice with the peptides: body weight; assay type: in vivo; conditions: mice immunized with FCA emulsion, 3 animals per group
# Method: as §1
# [4] = tested on: Porphyomonas gingivalis strain 381; assay: Inhibitory test of Porphyomonas gingivalis infection in Golden hamster with vaccine: resorption of alveolar bone; assay type: in vivo, Golden hamsters; conditions: for degree of resorption of the alveolar bone: in words; for Absorbance of alveolar bone (average): vaccine of Example 3, induction with Porphyomonas gingivalis strain 381, 80 days
# Source text: The effects of vaccine on Peptide 1 and Peptide 7 selected from the results of Test example 1, Test example 2, Test example 3, Test example 4 and Test example 5 were examined according to the following method using degree of resorption of alveolar bone and antibody titer as measures, using the vaccine described in Example 3.
# (§2) 3-week-old Golden hamsters (one group consisting of 6 animals, 5 groups in total, 1 Porphyomonas gingivalis strain 381 fimbria immunity induction group, 2 Peptide 1 immunity induction group, 3 Peptide 7 immunity induction group, 4 Nonimmunity induction group, 5 Nonimmunity noninduction group) were used.
# (§3) Each of the vaccines of the invention was subcutaneously administered at the oral cavity in amounts of 0.2 ml portions on the third week and the fourth week after the birth, and 0.4 ml on the fifth week.
# (§4) Induction of periodontal disease was conducted by culturing Porphyomonas gingivalis strain 381 in GAM broth at 37° C. for 20 hours, collecting the cells by centrifugation, suspending the cells in phisiological saline so that the cell concentration could be 10^9 cells/ml, administering 0.2 ml portions of the suspension into the oral cavity of the Golden hamsters for 7 days starting from the sixth week after the birth, and thereafter, administering the suspension once a week.
# After the start of the cell administration, the animals were allowed to freely ingest Diet 2000 (made by Funabashi Nojo) as a dental caries-inducing feed and water.
# (§5) After the Golden hamsters were fed for 80 days, 1 ml/kg portions of 0.5% pilocarpine hydrochloride were intraperitoneally administered, and saliva was taken from them. Thereafter, blood was taken from the abdominal aorta of each animal, and serum was obtained therefrom. Further, a bone preparation from each hamster was produced by amputating the head, heat treating the head using an autoclave, removing the muscle part, and washing with water and drying the remaining matter.
# The bone preparation was assayed for degree of resorption of the alveolar bone of a molar according to the method^f) of Tsukiyama et al. (Koku Eisei Kaishi (Jornal of Hygiene of Oral Cavity) 28, No. 3, 149, 1978).
# f) The bone preparation was stained with 20% silver nitrate solution for 5 minutes, and after water washing and drying, the distance from the enamel-cement junction to the alveolar bone edge was measured by a stereoscopic microscope (magnification 15-fold).
# the peptide = assay: Inhibitory test of Porphyomonas gingivalis infection in Golden hamster with vaccine: antibody titer in serum and saliva; assay type: in vivo, Golden hamsters; conditions: for Antibody titer Saliva (1/500) / Antibody titer Serum (1/10^5): A405 value by the ELISA method; for antibody titer in the sera and saliva: in words
# Method: as §2, §3, §4, §5
# The saliva and serum were assayed for antibody titer against the peptide.
# [5] = Inhibitory test of Porphyomonas gingivalis infection in Golden hamster with vaccine: body weight; assay type: in vivo, Golden hamsters; conditions: vaccine of Example 3, subcutaneous at the oral cavity, fed for 80 days
# Method: as §2, §3, §5
Substance,"Antibody titer, Normal subject group [1]","Antibody titer, Patient group with peridontal disease [1]",inhibitory effect against infection with Porphyomonas gingivalis (Porphyomonas gingivalis),Degree of redness Longest length × shortest length (Porphyomonas gingivalis) [mm^2],Inhibition rate (Porphyomonas gingivalis) [%],Antibody titer Saliva (1/500) After absorption [2],Antibody titer Saliva (1/500) Before absorption [2],Antibody titer Serum (1/10^5) After absorption [2],Antibody titer Serum (1/10^5) Before absorption [2],Body weight (Average g) [3] [g],degree of resorption of the alveolar bone [4],Absorbance of alveolar bone (average) [4],Antibody titer Saliva (1/500) (the peptide),Antibody titer Serum (1/10^5) (the peptide),antibody titer in the sera and saliva (the peptide),Body weight (at the time of production of bone preparation) (average g) [5] [g]
"Peptide 1: synthetic peptide, epitope of the 41 kD fimbrial subunit protein of Porphyomonas gingivalis; sequence in Table 1, not shown (ENATKVEDIK)",0.145,1.016,strong inhibitory effect,660,66.1,0.11,0.61,0.19,0.62,25,inhibition of absoption of the alveolar bone,48,0.62,0.65,increse of antibody titer,124
"Peptide 7: synthetic peptide, epitope of the 41 kD fimbrial subunit protein of Porphyomonas gingivalis; sequence in Table 1, not shown (GFYVLENDYS)",0.226,1.224,strong inhibitory effect,240,87.7,0.15,0.69,0.14,0.67,23,inhibition of absoption of the alveolar bone,41,0.79,0.71,increse of antibody titer,123

# Source: US6160087A, “Peptides having an amino acid sequence from the fimbrial protein of porphyromonas gingivalis and their uses” (priority 1993, dated 2000)
